Measured values published in ChEMBL document CHEMBL3044788, “α-(Substituted-phenoxyacetoxy)-α-heterocyclylmethylphosphonates: synthesis, herbicidal activity, inhibition on pyruvate dehydrogenase complex (PDHc), and application as postemergent herbicide against broadleaf weeds” (J Agric Food Chem, 2013).

Tests used:
Oryza sativa [1] = test: Herbicidal activity against two to three-leaf stage Oryza sativa (rice) assessed as inhibition of plant growth at 450 g/ha in greenhouse by postemergence herbicidal activity assay; format: organism-based; settings: in vivo, other
Polygonum aviculare [2] = test: Herbicidal activity against Polygonum aviculare assessed as relative growth inhibition at 600 g/ha in greenhouse by post-emergence herbicidal activity assay; format: functional; settings: read-out: GI
Amaranthus spinosus [3] = test: Herbicidal activity against Amaranthus spinosus assessed as relative growth inhibition at 1200 g/ha in greenhouse by postemergence herbicidal activity assay; format: functional; settings: post-emergence, read-out: GI
Amaranthus spinosus [4] = test: Herbicidal activity against Amaranthus spinosus assessed as relative growth inhibition at 450 g/ha in greenhouse by postemergence herbicidal activity assay; format: functional; settings: post-emergence, read-out: GI
[5] = Toxicity in percutaneously dosed Rattus norvegicus (rat); format: organism-based; settings: in vivo, topical or ocular
Amaranthus blitum [6] = test: Herbicidal activity against Amaranthus blitum assessed as relative growth inhibition at 900 g/ha in greenhouse by post-emergence herbicidal activity assay; format: functional; settings: read-out: GI
[7] = Inhibition of Oryza sativa (rice) PDHc by spectrophotometric assay
Chenopodium album [8] = test: Herbicidal activity against Chenopodium album assessed as relative growth inhibition at 50 g/ha in greenhouse by post-emergence herbicidal activity assay; format: functional; settings: read-out: GI
Zea mays [9] = test: Herbicidal activity against Zea mays (maize) assessed as relative growth inhibition at 600 g/ha in greenhouse by postemergence herbicidal activity assay; format: organism-based; settings: in vivo, other
Chenopodium album [10] = test: Herbicidal activity against Chenopodium album assessed as relative growth inhibition at 300 g/ha in greenhouse by post-emergence herbicidal activity assay; format: functional; settings: read-out: GI
Chenopodium album [11] = test: Herbicidal activity against Chenopodium album assessed as relative growth inhibition at 200 g/ha in greenhouse by post-emergence herbicidal activity assay; format: functional; settings: read-out: GI
Beta vulgaris [12] = test: Herbicidal activity against Beta vulgaris assessed as relative growth inhibition at 1200 g/ha in greenhouse by post-emergence herbicidal activity assay; format: functional; settings: read-out: GI
Polygonum aviculare [13] = test: Herbicidal activity against Polygonum aviculare assessed as relative growth inhibition at 300 g/ha in greenhouse by post-emergence herbicidal activity assay; format: functional; settings: read-out: GI
Oryza sativa [14] = test: Herbicidal activity against Oryza sativa (rice) assessed as relative growth inhibition at 600 g/ha in greenhouse by postemergence herbicidal activity assay; format: organism-based; settings: in vivo, other
Beta vulgaris [15] = test: Herbicidal activity against Beta vulgaris assessed as relative growth inhibition at 100 g/ha in greenhouse by post-emergence herbicidal activity assay; format: functional; settings: read-out: GI
[16] = biological target: T1, Pyruvate dehydrogenase complex (Pisum sativum, UniProt P52902+P52904); test: Inhibition of Pisum sativum (pea) PDHc by spectrophotometric assay; format: protein-complex assay, Lathyrus oleraceus
T1 sequence (P52902 whole entry): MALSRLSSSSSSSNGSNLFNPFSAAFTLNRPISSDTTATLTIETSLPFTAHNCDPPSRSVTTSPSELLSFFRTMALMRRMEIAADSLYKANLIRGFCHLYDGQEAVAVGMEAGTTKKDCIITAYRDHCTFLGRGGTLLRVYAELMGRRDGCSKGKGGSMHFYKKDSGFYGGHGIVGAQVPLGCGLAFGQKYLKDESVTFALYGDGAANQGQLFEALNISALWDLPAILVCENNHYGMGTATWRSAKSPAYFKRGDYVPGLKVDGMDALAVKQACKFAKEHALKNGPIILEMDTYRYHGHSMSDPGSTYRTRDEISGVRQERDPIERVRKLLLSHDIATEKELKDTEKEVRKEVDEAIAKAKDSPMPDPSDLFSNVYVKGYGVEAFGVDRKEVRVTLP
T1 sequence (P52904 whole entry): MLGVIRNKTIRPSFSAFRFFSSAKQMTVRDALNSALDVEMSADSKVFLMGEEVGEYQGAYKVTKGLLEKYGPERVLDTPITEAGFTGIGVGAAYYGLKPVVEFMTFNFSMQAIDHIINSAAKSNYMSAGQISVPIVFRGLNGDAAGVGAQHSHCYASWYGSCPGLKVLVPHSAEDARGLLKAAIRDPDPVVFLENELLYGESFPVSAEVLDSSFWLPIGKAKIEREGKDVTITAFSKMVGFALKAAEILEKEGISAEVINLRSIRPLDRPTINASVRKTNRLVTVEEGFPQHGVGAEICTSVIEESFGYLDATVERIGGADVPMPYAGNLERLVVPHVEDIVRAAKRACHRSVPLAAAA

Amaranthus blitum [17] = test: Herbicidal activity against Amaranthus blitum assessed as relative growth inhibition at 1200 g/ha in greenhouse by post-emergence herbicidal activity assay; format: functional; settings: read-out: GI
Beta vulgaris [18] = test: Herbicidal activity against Beta vulgaris assessed as relative growth inhibition at 600 g/ha in greenhouse by post-emergence herbicidal activity assay; format: functional; settings: read-out: GI
Amaranthus retroflexus = test: Herbicidal activity against 2 to 3 leaf stage Amaranthus retroflexus assessed as inhibition of plant growth at 450 g/ha in greenhouse by postemergence herbicidal activity assay; format: functional; settings: post-emergence, read-out: GI
Chenopodium album [19] = test: Herbicidal activity against Chenopodium album assessed as relative growth inhibition at 450 g/ha in greenhouse by post-emergence herbicidal activity assay; format: functional; settings: read-out: GI
Amaranthus blitum [20] = test: Herbicidal activity against Amaranthus blitum assessed as relative growth inhibition at 100 g/ha in greenhouse by post-emergence herbicidal activity assay; format: functional; settings: read-out: GI
Amaranthus blitum [21] = test: Herbicidal activity against Amaranthus blitum assessed as relative growth inhibition at 450 g/ha in greenhouse by post-emergence herbicidal activity assay; format: functional; settings: read-out: GI
Beta vulgaris [22] = test: Herbicidal activity against Beta vulgaris assessed as relative growth inhibition at 200 g/ha in greenhouse by post-emergence herbicidal activity assay; format: functional; settings: read-out: GI
Oryza sativa [23] = test: Herbicidal activity against Oryza sativa (rice) assessed as relative growth inhibition at 1200 g/ha in greenhouse by postemergence herbicidal activity assay; format: organism-based; settings: in vivo, other
Echinochloa crus-galli = test: Herbicidal activity against 2 to 3 leaf stage Echinochloa crus-galli (barnyard grass) assessed as inhibition of plant growth at 450 g/ha in greenhouse by postemergence herbicidal activity assay; format: functional; settings: Echinochloa crus-galli, post-emergence; read-out: GI
Zea mays [24] = test: Herbicidal activity against Zea mays (maize) assessed as relative growth inhibition at 450 g/ha in greenhouse by postemergence herbicidal activity assay; format: organism-based; settings: in vivo, other
Zea mays [25] = test: Herbicidal activity against Zea mays (maize) assessed as relative growth inhibition at 1200 g/ha in greenhouse by postemergence herbicidal activity assay; format: organism-based; settings: in vivo, other
Zea mays [26] = test: Herbicidal activity against Zea mays (maize) assessed as relative growth inhibition at 900 g/ha in greenhouse by postemergence herbicidal activity assay; format: organism-based; settings: in vivo, other
Beta vulgaris [27] = test: Herbicidal activity against Beta vulgaris assessed as relative growth inhibition at 300 g/ha in greenhouse by post-emergence herbicidal activity assay; format: functional; settings: read-out: GI
[28] = tested on: Brassica rapa subsp. oleifera; test: Herbicidal activity against Brassica rapa subsp. oleifera assessed as inhibition of rape root growth at 450 g/ha by postemergence herbicidal activity assay; format: functional; settings: post-emergence, read-out: GI
Polygonum aviculare [29] = test: Herbicidal activity against Polygonum aviculare assessed as relative growth inhibition at 50 g/ha in greenhouse by post-emergence herbicidal activity assay; format: functional; settings: read-out: GI
[30] = tested on: Brassica rapa subsp. oleifera; test: Herbicidal activity against Brassica rapa subsp. oleifera assessed as inhibition of rape root growth; format: functional, organism-based
Beta vulgaris [31] = test: Herbicidal activity against Beta vulgaris assessed as relative growth inhibition at 50 g/ha in greenhouse by post-emergence herbicidal activity assay; format: functional; settings: read-out: GI
Chenopodium album [32] = test: Herbicidal activity against Chenopodium album assessed as relative growth inhibition at 900 g/ha in greenhouse by post-emergence herbicidal activity assay; format: functional; settings: read-out: GI

Structure (SMILES): COP(=O)(OC)C(OC(=O)COc1ccc(Cl)cc1Cl)c1ccco1 (centres undefined)
- growth inhibition (GI) (Oryza sativa [1]): 10%
- inhibition of growth at 600 g/ha (Polygonum aviculare [2]): 100%
- inhibition of growth at 1200 g/ha (Amaranthus spinosus [3]): 100%
- inhibition of growth at 450 g/ha (Amaranthus spinosus [4]): 100%
- LD50 [5]: > 2000 mg/kg
- inhibition of growth at 900 g/ha (Amaranthus blitum [6]): 100%
- IC50 [7]: 704 µM
- inhibition of growth at 50 g/ha (Chenopodium album [8]): 80%
- growth inhibition (GI) (Zea mays [9]): 0%
- inhibition of growth at 300 g/ha (Chenopodium album [10]): 100%
- inhibition of growth at 200 g/ha (Chenopodium album [11]): 100%
- inhibition of growth at 1200 g/ha (Beta vulgaris [12]): 100%
- inhibition of growth at 300 g/ha (Polygonum aviculare [13]): 91%
- growth inhibition (GI) (Oryza sativa [14]): 0%
- inhibition of growth at 100 g/ha (Beta vulgaris [15]): 80%
- IC50 [16]: 28.3 µM
- inhibition of growth at 1200 g/ha (Amaranthus blitum [17]): 100%
- inhibition of growth at 600 g/ha (Beta vulgaris [18]): 100%
- inhibition of growth at 450 g/ha (Amaranthus retroflexus): 100%
- inhibition of growth at 450 g/ha (Chenopodium album [19]): 100%
- inhibition of growth at 100 g/ha (Amaranthus blitum [20]): 100%
- inhibition of growth at 450 g/ha (Amaranthus blitum [21]): 100%
- inhibition of growth at 200 g/ha (Beta vulgaris [22]): 98%
- growth inhibition (GI) (Oryza sativa [23]): 20%
- inhibition of growth at 450 g/ha (Echinochloa crus-galli): 25%
- growth inhibition (GI) (Zea mays [24]): 0%
- growth inhibition (GI) (Zea mays [25]): 10%
- growth inhibition (GI) (Zea mays [26]): 0%
- inhibition of growth at 300 g/ha (Beta vulgaris [27]): 98%
- inhibition of growth at 450 g/ha [28]: 92%
- inhibition of growth at 50 g/ha (Polygonum aviculare [29]): 70%
- IC50 [30]: 0.0418 µM
- inhibition of growth at 50 g/ha (Beta vulgaris [31]): 80%
- inhibition of growth at 900 g/ha (Chenopodium album [32]): 100%
